Like-named read-outs stand apart in the source and are kept apart here.
Key:
[1] = system: LPS (E. coli) induced fever in the rat; test: LPS (E. coli) induced fever test in the rat (Test B), anti-pyretic activity; format: in vivo, rat (Sprague-Dawley); details: for ED50: Escherichia coli, 2 h, read-out: ED50, Test B
Protocol: For this test male rats (Sprague-Dawley) of 130-180 g are fasted overnight. Body temperature is measured the following morning using a rectal probe connected to a telethermometer. […] Body temperature is measured 2 hours later and this value taken as the initial temperature. 6 hours after injection, the test animals receive an oral dosage of the test substance suspended in 0.5% tragacanth or tragacanth alone (control). Body temperature is again measured after a further 2 hours.

[2] = system: arthritis pain in the rat; test: Arthritis pain test in the rat (Test C), analgesic activity; format: in vivo, rat (OFA); details: for ED50: read-out: ED50, Test C
Protocol: For this test male rats (OFA) of 110-120 g are treated with 0.1 ml of a Myobacterium smegmatis suspension in paraffin oil (0.6 mg Mycobact./0.1 ml oil) injected i.c. into the tail root. Market arthritis in the hind-paws develops ca. 12 days after treatment. 30 mins. before administration of test-substance, control measurement is performed by flexing the foot joint of the right or left hind-paw using a Statham transducer until volcalisation occurs. […] Test substance is administered orally and the flexion procedure repeated 1, 3 and 5 hours subsequently. The pressure at which vocalisation occurs is noted, the value recorded for each rat at each interval being the average value of three successive measurements. Animals in which the vocalisation threshold is doubled with respect to the control measurement are considered to be protected. The ED50 estimated for each post-treatment time according to the Probit method is taken as the dosage at which 50% of animals are protected. Active agents of the invention are active in this test at dosages of from 3.2 to 100 mg/kg.

[3] = system: established adjuvant arthritis in the rat; test: Adjuvant arthritis test in the rat (Test A), anti-inflammatory activity; format: in vivo; details: for ED50: read-out: ED50, Test A
Text: For this test, adjuvant arthritis is induced according to the method of Pearson and Wood, "Arthr.

[4] = fraction of commonly employed acetylsalicylic acid dosage

COC1=Cc2ccccc2/C(=C\C(=O)O)c2cc(Cl)sc21 [Compound A, [2-chloro-10-methoxy-4H-benzo[4,5]-cyclohepta[1,2-b]thiophen-4-ylidene]acetic acid (E)-isomer]
ED50 ([1]; oral, rat, dosage at which increase in rectal temperature is 50% of control group): 14 ± 5 mg/kg
indicated daily dosage relative to acetylsalicylic acid, anti-pyretic therapy [1, 4]: 1/10
indicated daily dosage relative to acetylsalicylic acid, analgesic therapy [2, 4]: 1/5
ED50 ([2]; oral, rat, dosage at which 50% of animals are protected (vocalisation threshold doubled), post-treatment time not stated): 18 mg/kg
ED50 ([3]; established adjuvant arthritis, rat): 10 ± 2 mg/kg
indicated daily dosage relative to acetylsalicylic acid, anti-inflammatory therapy [3, 4]: 1/24

CC(=O)Oc1ccccc1C(=O)O [Compound B, acetyl-salicylic acid, reference compound]
ED50 ([1]; po): 161 mg/kg
ED50 ([2]; Rattus norvegicus, po): 90 mg/kg
ED50 ([3]; Rattus norvegicus): 240 mg/kg
